The results in this text go back to ChEMBL document CHEMBL1142085, “Once-weekly micafungin therapy is as effective as daily therapy for disseminated candidiasis in mice with persistent neutropenia” (Antimicrob Agents Chemother, 2007).

Values after ≈ are worked out from the molar mass of the structure shown. Active and inactive are the calls of the source. *1 amine or outer side, *2 acyl side, *3 side chain or, on linkers, in order; H or OH if unused. Where a SMILES comes first, the peptide text is derived from it. Bridges are numbered along the chain shown (N, C = ends). [ ]: non-standard residue; d: D form. The star is where a group is joined. hTyr(3S-OH,4S-OH,3'-OSO3H) = N[C@H](C(=O)O)[C@H](O)[C@@H](O)c1ccc(O)c(OS(=O)(=O)O)c1; Orn(4R-OH,5R-OH) = O=C([C@H](C[C@@H](O)[C@@H](O)N[*:3])N[*:1])[*:2]; Pro(3S-OH,4S-Me) = C[C@H]1CN[C@H](C(=O)O)[C@H]1O; X1 = CCCCCOc1ccc(-c2cc(-c3ccc(C(=O)*)cc3)no2)cc1; Gln(3R-OH) = NC(=O)C[C@@H](O)[C@H](N)C(=O)O; Hyp = O=C(O)[C@@H]1C[C@@H](O)CN1

Series [1] has as its system Nakaseomyces glabratus. The experiment in a line: Reduction of kidney fungal burden in Candida glabrata infected neutropenic Swiss Webster mouse at >=50 mg/kg, ip after 7 days. The format is functional, organism-based.
Series [2] can be described thus: Serum clearance in Candida glabrata infected neutropenic Swiss Webster mouse. The format is ADME, organism-based.
For series [3], the system named is Nakaseomyces glabratus. The series is described as follows: Reduction of fungal burden in Candida glabrata infected neutropenic Swiss Webster mouse at 100 mg/kg, ip after 7 days. More on the design: dose 100 mg/kg. The format is functional, organism-based.
Series [4] relates to Nakaseomyces glabratus. The series is described as follows: Antifungal activity against Candida glabrata isolated from candidemia patient after 24 hrs. In kind it is functional.
For series [5], the system named is Nakaseomyces glabratus. The experiment in a line: Reduction of lung fungal burden in Candida glabrata infected ip dosed neutropenic Swiss Webster mouse. In kind it is functional.
The test system of series [6] is Nakaseomyces glabratus. The experiment in a line: Antifungal activity against Candida glabrata isolated from candidemia patient after 48 hrs. In kind it is functional.
Series [7] deals with Nakaseomyces glabratus. The series is described as follows: Reduction of kidney fungal burden in Candida glabrata infected ip dosed neutropenic Swiss Webster mouse. In kind it is functional.
Series [8] relates to Nakaseomyces glabratus. The series is described as follows: Reduction of spleen fungal burden in Candida glabrata infected ip dosed neutropenic Swiss Webster mouse. The format is functional.

For `CCCCCOc1ccc(-c2cc(-c3ccc(C(=O)N[C@H]4C[C@@H](O)[C@@H](O)NC(=O)[C@@H]5[C@@H](O)[C@@H](C)CN5C(=O)[C@H]([C@H](O)CC(N)=O)NC(=O)[C@H]([C@H](O)[C@@H](O)c5ccc(O)c(OS(=O)(=O)O)c5)NC(=O)[C@@H]5C[C@@H](O)CN5C(=O)[C@H]([C@@H](C)O)NC4=O)cc3)no2)cc1` [MICAFUNGIN] (X1-[Orn(4R-OH,5R-OH)]T[Hyp][hTyr(3S-OH,4S-OH,3'-OSO3H)][Gln(3R-OH)][Pro(3S-OH,4S-Me)]; lactam 1-C), the result in the series on Nakaseomyces glabratus [1] and in the series on Nakaseomyces glabratus [3] was Active. This molecule gave a clearance in series [2] of 0.0133 mL/min. Moreover, the MIC with Nakaseomyces glabratus [4] and in the series with Nakaseomyces glabratus [6] was 0.02 µg/mL (≈ 0.0157 µM) throughout. Moreover, the 50% effective dose (ED50) in the series on Nakaseomyces glabratus [5] was determined as 17.3 mg/kg; with Nakaseomyces glabratus [7], 14.7 mg/kg; in the series on Nakaseomyces glabratus [8] it was 7.38 mg/kg.

Broadly, the clearance is a measure of how efficiently the substance is removed, as volume per time. What is called MIC is the smallest concentration in the dilution series that meets the test's criterion for growth inhibition. High values mean a less susceptible organism, low ones a more susceptible organism. In general, ED50 refers to the dose that gives a 50% effect, or the effect in half of the subjects. Lower therefore signals greater potency.
